Molecules are shown by their SMILES. pIC50: −log10 of the molar value.

By pIC50 is commonly meant the IC50 on a negative log10 scale, so that one unit is a factor of ten. The low end stands for a large IC50, the high end for a small IC50.

Assay [1] has as its target JAK1 (Homo sapiens (Human), UniProt P23458). Description: JAK kinase assay (KINASE-GLO luminescent), JAK1 enzyme. It counts as biochemical. Particulars: JAK1 enzyme 10 nM, Abl peptide substrate. Here is the method:
(§1) All compounds were initially prepared as 10 mM stocks in anhydrous dimethylsulfoxide (DMSO). […] Test compounds were then serially diluted 1:5 in DMSO for an 11-point concentration response and further diluted in the assay buffer bringing all compound concentrations to a final range of 100 μM to 10 μM in 2.5% DMSO. […] The reaction was initiated by the addition of 10 μL of 4× stock solution ATP (2 μM). Reactions were thoroughly mixed manually, covered, and allowed to incubate at room temperature for 75 min. Protein kinase activity was quantitated using Promega's KINASE-GLO™ luminescent Kinase Assay Kit according to the manufacturer's directions. ATP concentrations remaining in Test wells following the termination of the enzymatic reaction were compared against control wells containing equivalent amounts of DMSO containing no inhibitor (CTRL). […] Percent of Control (POC) values were determined for each concentration of compound tested according to the equation: […]
(§2) IC50 values were calculated using the following 4-parameter logistic curve-fitting algorithm:
(§3) Compounds were prepared in the exact same manner as described in the ROCK Kinase Assay with the exception to the substrate and enzyme. […] All other steps and solutions remain identical to the ROCK Kinase Assay above.
On the technique in general: Kinase-Glo reads ATP consumption through a luciferase reaction.

The target in assay [2] is TYK2 (Homo sapiens (Human), UniProt P29597). Put plainly: JAK kinase assay (KINASE-GLO luminescent), TYK2 enzyme. It counts as biochemical. To be noted: TYK2 enzyme 10 nM, Abl peptide substrate. Here is the method: as §1, §2, §3
Sequence of TYK2 (P29597 whole entry, species assumed): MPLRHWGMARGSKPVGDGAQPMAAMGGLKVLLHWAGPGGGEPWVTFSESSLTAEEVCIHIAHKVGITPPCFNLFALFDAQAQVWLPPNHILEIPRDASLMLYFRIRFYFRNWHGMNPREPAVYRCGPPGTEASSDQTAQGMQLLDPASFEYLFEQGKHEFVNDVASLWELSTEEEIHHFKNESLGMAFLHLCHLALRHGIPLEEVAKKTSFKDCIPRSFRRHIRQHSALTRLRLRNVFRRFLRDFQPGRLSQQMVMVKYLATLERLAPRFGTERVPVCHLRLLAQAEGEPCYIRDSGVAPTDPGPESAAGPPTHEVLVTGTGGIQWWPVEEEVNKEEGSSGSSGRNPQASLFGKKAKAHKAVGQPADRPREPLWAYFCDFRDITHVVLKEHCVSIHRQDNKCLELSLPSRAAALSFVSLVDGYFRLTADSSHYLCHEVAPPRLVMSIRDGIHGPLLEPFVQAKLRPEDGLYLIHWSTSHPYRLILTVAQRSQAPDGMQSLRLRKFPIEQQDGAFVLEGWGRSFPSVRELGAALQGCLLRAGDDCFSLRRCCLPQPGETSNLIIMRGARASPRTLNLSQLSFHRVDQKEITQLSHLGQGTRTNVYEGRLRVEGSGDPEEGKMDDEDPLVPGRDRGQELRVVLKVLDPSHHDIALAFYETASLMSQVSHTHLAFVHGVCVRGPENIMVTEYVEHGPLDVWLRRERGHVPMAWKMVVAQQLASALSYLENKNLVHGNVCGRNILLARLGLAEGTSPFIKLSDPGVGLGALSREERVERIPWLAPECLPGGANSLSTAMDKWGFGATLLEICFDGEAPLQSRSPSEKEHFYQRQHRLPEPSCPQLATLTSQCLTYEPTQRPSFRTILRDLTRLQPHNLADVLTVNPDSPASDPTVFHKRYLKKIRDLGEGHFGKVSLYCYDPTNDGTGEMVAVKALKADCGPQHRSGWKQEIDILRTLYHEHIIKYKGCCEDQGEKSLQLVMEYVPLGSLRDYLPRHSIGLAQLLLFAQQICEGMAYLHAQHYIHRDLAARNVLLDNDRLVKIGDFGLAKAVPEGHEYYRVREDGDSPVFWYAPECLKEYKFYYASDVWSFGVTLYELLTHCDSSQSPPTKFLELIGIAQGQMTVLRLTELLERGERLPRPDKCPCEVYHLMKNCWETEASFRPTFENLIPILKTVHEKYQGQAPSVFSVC

Sequence of JAK1 (P23458 whole entry, species assumed): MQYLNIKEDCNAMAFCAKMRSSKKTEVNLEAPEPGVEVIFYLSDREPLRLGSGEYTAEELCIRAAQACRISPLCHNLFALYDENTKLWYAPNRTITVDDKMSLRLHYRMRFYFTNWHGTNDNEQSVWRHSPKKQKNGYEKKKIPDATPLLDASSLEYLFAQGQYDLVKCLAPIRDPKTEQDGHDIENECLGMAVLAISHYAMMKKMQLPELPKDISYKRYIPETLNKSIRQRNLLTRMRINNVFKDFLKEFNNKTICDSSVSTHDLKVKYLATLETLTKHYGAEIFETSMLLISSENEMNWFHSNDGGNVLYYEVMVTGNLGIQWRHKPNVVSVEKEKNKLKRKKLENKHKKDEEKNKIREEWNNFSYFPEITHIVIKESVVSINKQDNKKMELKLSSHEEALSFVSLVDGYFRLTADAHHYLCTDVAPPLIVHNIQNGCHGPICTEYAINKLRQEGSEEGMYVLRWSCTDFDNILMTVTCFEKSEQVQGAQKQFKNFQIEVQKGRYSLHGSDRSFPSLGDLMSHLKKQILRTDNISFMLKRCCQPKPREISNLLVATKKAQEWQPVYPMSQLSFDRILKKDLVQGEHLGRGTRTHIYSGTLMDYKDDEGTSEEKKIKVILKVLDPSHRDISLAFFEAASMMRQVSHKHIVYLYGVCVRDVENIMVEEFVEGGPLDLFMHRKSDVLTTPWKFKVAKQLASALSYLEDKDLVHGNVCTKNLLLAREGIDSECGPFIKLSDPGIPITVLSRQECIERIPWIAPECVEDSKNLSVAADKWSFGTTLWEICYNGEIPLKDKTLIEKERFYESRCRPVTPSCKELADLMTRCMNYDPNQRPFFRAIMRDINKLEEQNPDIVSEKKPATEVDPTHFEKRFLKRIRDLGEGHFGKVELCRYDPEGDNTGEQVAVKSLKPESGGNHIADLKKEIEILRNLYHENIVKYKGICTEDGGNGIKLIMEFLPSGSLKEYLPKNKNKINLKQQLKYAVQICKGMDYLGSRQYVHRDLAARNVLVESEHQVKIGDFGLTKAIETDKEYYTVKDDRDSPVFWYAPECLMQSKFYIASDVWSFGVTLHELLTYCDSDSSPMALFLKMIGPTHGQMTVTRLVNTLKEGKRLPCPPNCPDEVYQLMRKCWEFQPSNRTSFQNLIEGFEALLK

As for `Cc1cc(Nc2ncc(C)c(N3CC(CC#N)(N4CCN5CCC[C@@H]5C4)C3)n2)sn1` [E61a], the pIC50 in assay [1] and in assay [2] was greater than 7.30 throughout.

On to `Cc1cc(Nc2ncc(C)c(N3CC(CC#N)(N4CCN5CCC[C@H]5C4)C3)n2)sn1` [E62a], for which the pIC50 in assay [1] and in assay [2] was greater than 7.30 throughout.

`C#CCC1(O)CN(c2nc(Nc3cc(C)ns3)ncc2C)C1` [E63a]: the values for the pIC50 in assay [1] and in assay [2] were greater than 7.00 and greater than 7.30, respectively.

Consider `Cc1cc(Nc2ncc(C)c(N3CC(CC#N)(N4CCN(C5CCC5)CC4)C3)n2)sn1` [E64a], for which the pIC50 in assay [1] and in assay [2] was greater than 8.00 in each case.

As for `CCOC(=O)CC1(N2CCCCC2)CN(c2nc(Nc3cc(C)ns3)ncc2C)C1` [E65a], the pIC50 is greater than 6.00 in assay [1] and greater than 7.30 in assay [2].

Regarding `Cc1cc(Nc2ncc(C)c(N3CC(CCO)(N4CCCCC4)C3)n2)sn1` [E66a], the pIC50 in assay [1] was greater than 7.30; in assay [2], greater than 8.00.

In the case of `Cc1cc(Nc2ncc(C)c(N3CC(CC#N)(N4CCN5C[C@H](F)C[C@H]5C4)C3)n2)sn1` [E67a], the pIC50 in assay [1] and in assay [2] was greater than 8.00 each time.

For the compound `Cc1cc(Nc2ncc(C)c(N3CC(CC#N)(NCC4CN(C)C4)C3)n2)sn1` [E68a], the pIC50 in assay [1] and in assay [2] was greater than 6.30 each time.

Take `COC1CCN(C2(CC#N)CN(c3nc(Nc4cc(C)ns4)ncc3C)C2)CC1` [E69a]: the pIC50 in assay [1] and in assay [2] was greater than 8.00 in each case.

Consider `Cc1cc(Nc2ncc(C)c(N3CC(CC#N)(N4CCN5C[C@@H](F)C[C@@H]5C4)C3)n2)sn1` [E70a], for which the results for the pIC50 in assay [1] and in assay [2] were greater than 7.70 and greater than 8.00, respectively.

On to `CO[C@H]1C[C@H]2CN(C3(CC#N)CN(c4nc(Nc5cc(C)ns5)ncc4C)C3)CCN2C1` [E71a], for which the pIC50 in assay [1] and in assay [2] was greater than 8.00 each time.

As for `CO[C@@H]1C[C@H]2CN(C3(CC#N)CN(c4nc(Nc5cc(C)ns5)ncc4C)C3)CCN2C1` [E72a], the pIC50 in assay [1] and in assay [2] was greater than 8.00 in each case.

In the case of `Cc1cc(Nc2ncc(C)c(N3CC(CC#N)(N4CCN5CCN(C)CC5C4)C3)n2)sn1` (stereo not drawn) [E73a], the pIC50 in assay [1] and in assay [2] was greater than 7.00 throughout.

In the case of `Cc1cc(Nc2ncc(F)c(N3CC(CC#N)(N4CCCCC4)C3)n2)sn1` [E74a], the pIC50 in assay [1] was greater than 6.30; in assay [2] it was greater than 7.70.

Consider `COCCN1CCN(C2(CC#N)CN(c3nc(Nc4cc(C)ns4)ncc3C)C2)CC1` [E75], for which the pIC50 in assay [1] and in assay [2] was greater than 8.00 each time.

`Cc1cc(Nc2ncc(C)c(N3CC(CC#N)(N4CCN5C[C@H](F)C[C@@H]5C4)C3)n2)sn1` [E75a]: the pIC50 in assay [1] was greater than 7.30; in assay [2] it was greater than 8.00.

As to `Cc1cc(Nc2ncc(C)c(N3CC(CC#N)(N4CCN5CC6(CC6)C[C@H]5C4)C3)n2)sn1` [E76a], the pIC50 in assay [1] and in assay [2] was greater than 8.00 each time.

Consider `Cc1cc(Nc2ncc(C)c(N3CC(CC#N)(N4CCN5CCOC[C@@H]5C4)C3)n2)sn1` [E77a], for which the results for the pIC50 in assay [1] and in assay [2] were greater than 7.30 and greater than 8.00, respectively.

Consider `Cc1cc(Nc2ncc(C)c(N3CC(CC#N)(N4CCN5CCOC[C@H]5C4)C3)n2)sn1` [E78a], for which the pIC50 in assay [1] and in assay [2] was greater than 8.00 in each case.

In the case of `Cc1cnc(Nc2ccc(C3(O)COC3)cc2)nc1N1CC(CC#N)(N2CCN(C)CC2)C1` [E79a], the pIC50 in assay [1] was greater than 7.30; in assay [2] it was greater than 8.00.

Regarding `Cc1cnc(Nc2cnn(C)c2)nc1N1CC(CC#N)(N2CCN(C)CC2)C1` [E80, 2-(1-(5-methyl-2-((1-methyl-1H-pyrazol-4-yl)amino)pyrimidin-4-yl)-3-(4-methylpiperazin-1-yl)azetidin-3-yl)acetonitrile], the pIC50 in assay [1] and in assay [2] was greater than 7.70 in each case.

Regarding `Cc1cc(Nc2ncc(C)c(N3CC(CC#N)(N4CCN5CCCC[C@H]5C4)C3)n2)sn1` [E80a], the pIC50 in assay [1] and in assay [2] was greater than 8.00 each time.

`Cc1cnc(Nc2cnn(C)c2)nc1N1CC(CC#N)(N2CCC3(CC2)CC3(F)F)C1` [E81]: the pIC50 in assay [1] and in assay [2] was greater than 8.00 throughout.

For the compound `Cc1cc(Nc2ncc(C)c(N3CC(CC#N)(N4CCN5CC(F)(F)C[C@H]5C4)C3)n2)sn1` [E81a], the pIC50 in assay [1] and in assay [2] was greater than 7.70 in each case.

Regarding `Cc1cnc(Nc2cnn(C)c2)nc1N1CC2(C1)CC2(F)F` [E82], the pIC50 in assay [1] and in assay [2] was greater than 7.70 throughout.

Consider `Cc1cc(Nc2nccc(N3CC(CC#N)(N4CCN5CC6(CC6)C[C@H]5C4)C3)n2)sn1` [E82a], for which the pIC50 in assay [1] was greater than 7.30; in assay [2] it was greater than 7.70.

As for `Cc1cc(Nc2ncc(C)c(N3CC(CC#N)(N4CCN5CCC[C@]5(C)C4)C3)n2)sn1` [E83a], the pIC50 in assay [1] is greater than 7.00; in assay [2] it was greater than 7.30.

Consider `Cc1cc(Nc2ncc(C)c(N3CC(CC#N)(N4CCN5CCC[C@@]5(C)C4)C3)n2)sn1` [E84a], for which the pIC50 in assay [1] and in assay [2] was greater than 8.00 throughout.

As to `Cc1cc(Nc2ncc(C)c(N3CC(CC#N)(N4CCN5CCCC[C@@H]5C4)C3)n2)sn1` [E85a], the pIC50 in assay [1] is greater than 7.30; in assay [2] it was greater than 8.00.

Take `Cc1cc(Nc2ncc(C)c(N3CC(CC#N)(N4CCN5CC6CC5(C6)C4)C3)n2)sn1` [E86a]: the pIC50 is greater than 7.00 in assay [1] and greater than 7.70 in assay [2].

Regarding `Cc1cc(Nc2ncc(C)c(N3CC(CC#N)(N4CCCN5CCC[C@H]5C4)C3)n2)sn1` [E87a], the negative-log IC50 (pIC50) in assay [1] and in assay [2] was greater than 8.00 each time.

As for `Cc1cc(Nc2ncc(C)c(N3CC(CC#N)(N4CC5(C4)CC5(F)F)C3)n2)sn1` [E88a], the pIC50 in assay [1] and in assay [2] was greater than 8.00 each time.

On to `Cc1cc(Nc2ncc(C)c(N3CC(CC#N)(N4CCN5CCC5C4)C3)n2)sn1` (stereo not drawn) [E89a], for which the pIC50 was greater than 7.00 in assay [1] and greater than 7.30 in assay [2].

On to `Cc1cc(Nc2ncc(C)c(N3CC(CC#N)(N4CCn5cccc5C4)C3)n2)sn1` [E90a], for which the pIC50 in assay [1] and in assay [2] was greater than 8.00 each time.

Consider `Cc1cc(Nc2ncc(C)c(N3CC(CC#N)(N4CCn5c(cnc5C)C4)C3)n2)sn1` [E91a], for which the pIC50 in assay [1] and in assay [2] was greater than 8.00 throughout.

In the case of `Cc1cc(Nc2ncc(C)c(N3CC(CC#N)(N4C[C@@H]5OCCO[C@@H]5C4)C3)n2)sn1` [E92a], the pIC50 in assay [1] and in assay [2] was greater than 8.00 each time.

Take `Cc1cc(Nc2ncc(C)c(N3CC(CC#N)(N4CCn5cncc5C4)C3)n2)sn1` [E93a]: the pIC50 in assay [1] and in assay [2] was greater than 8.00 throughout.

For the compound `Cc1cc(Nc2ncc(C)c(N3CC(CC#N)(N4CCN(C)C5CC54)C3)n2)sn1` (stereo not drawn) [E94a], the pIC50 in assay [1] and in assay [2] was greater than 8.00 each time.

Take `Cc1cc(Nc2ncc(C)c(N3CC(CC#N)(N4CC5(CC5)C4)C3)n2)sn1` [E95a]: the pIC50 in assay [1] was greater than 7.30; in assay [2], greater than 8.00.

As to `CCS(=O)(=O)C1CN(C2(CC#N)CN(c3nc(Nc4cc(C)ns4)ncc3C)C2)C1` [E96a], the pIC50 in assay [1] was greater than 7.00; in assay [2] it was greater than 7.30.

For the compound `Cc1cc(Nc2nccc(N3CC(CC#N)(N4CCN5C[C@H](F)C[C@H]5C4)C3)n2)sn1` [E97a], the figures for the pIC50 in assay [1] and in assay [2] were greater than 7.30 and greater than 8.00, respectively.

With `Cc1cc(Nc2ncc(C)c(N3CC(CC#N)(N4CC5OCCN(C)C5C4)C3)n2)sn1` (stereo not drawn) [E98a], the negative logarithm of the IC50 (pIC50) in assay [1] is greater than 7.30; in assay [2], greater than 8.00.

On to `Cc1cc(Nc2ncc(C)c(N3CC(CC#N)(OC4CC5(CC5)C4)C3)n2)sn1` [E99a], for which the pIC50 in assay [1] and in assay [2] was greater than 8.00 each time.

As for `COC(=O)CC1(N2CCN3CCC[C@H]3C2)CN(c2nc(Nc3cc(C)ns3)ncc2C)C1` [E100a], the pIC50 in assay [1] and in assay [2] was greater than 8.00 in each case.

Regarding `COc1cnc(Nc2cc(C)ns2)nc1N1CC(CC#N)(N2CCN3C[C@H](F)C[C@H]3C2)C1` [E101a], the pIC50 in assay [1] and in assay [2] was greater than 8.00 throughout.

Consider `Cc1cc(Nc2ncc(C3CC3)c(N3CC(CC#N)(N4CCN5C[C@H](F)C[C@H]5C4)C3)n2)sn1` [E102a], for which the pIC50 in assay [1] and in assay [2] was greater than 8.00 each time.

`Cc1cc(Nc2ncc(C)c(N3CC(CCO)(N4CCN5CCC[C@H]5C4)C3)n2)sn1` [E103a]: the pIC50 in assay [1] and in assay [2] was greater than 8.00 throughout.

Consider `Cc1cc(Nc2ncc(C)c(N3CC(CC#N)(N4C[C@H]5CN(C)C[C@H]5C4)C3)n2)sn1` [E104a], for which the pIC50 in assay [1] and in assay [2] was greater than 7.00 throughout.

In the case of `Cc1cc(Nc2ncc(C)c(N3CC(CC#N)(N4CC5CN(C)CC5C4)C3)n2)sn1` (stereo not drawn) [E105a], the pIC50 was greater than 7.00 in assay [1] and greater than 7.30 in assay [2].

Consider `Cc1cc(Nc2ncc(C)c(N3CC(CC#N)(OC4CC5(C4)CC5(F)F)C3)n2)sn1` (stereo not drawn) [E106a], for which the pIC50 in assay [1] and in assay [2] was greater than 8.00 each time.

Turning to `Cc1cc(Nc2ncc(C)c(N3CC(C4CC4)(N4CCCCC4)C3)n2)sn1` [E107a], the negative logarithm of the IC50 (pIC50) is greater than 7.00 in assay [1] and greater than 7.30 in assay [2].

Turning to `Cc1cc(Nc2ncc(C)c(N3CC(C4CC4)C3)n2)sn1` [E108a], the pIC50 was greater than 7.30 in assay [1] and greater than 8.00 in assay [2].

Regarding `Cc1cc(Nc2ncc(C)c(N3CC(CC4CC4)C3)n2)sn1` [E109a], the pIC50 in assay [1] was greater than 7.30; in assay [2], greater than 8.00.

In the case of `Cc1cc(Nc2ncc(C)c(N3CC(N4CCN5C[C@H](F)C[C@H]5C4)C3)n2)sn1` [E110a], the pIC50 in assay [1] is greater than 7.30; in assay [2], greater than 8.00.

The values above are taken from patent US20240425496A1, “AZETIDINYL PYRIMIDINES AND USES THEREOF” (Aerie Pharmaceuticals, Inc., priority 2021, published 2024).
